Converted amounts (≈) assume the structure as drawn.
Key:
[1] = Volume of distribution at steady state in dog at 4.75 mg/kg; assay type: ADME, organism-based, Canis lupus familiaris; conditions: in vivo, read-out: Vdss
[2] = Aqueous solubility of the compound at pH 8.3; assay type: physicochemical; conditions: aqueous medium
[3] = Volume of distribution at steady state in rat at 0.5 mg/kg; assay type: ADME, organism-based; conditions: in vivo, read-out: Vdss
[4] = Chemical stability of the compound in Tris buffer at pH 8 at 37 degC after 90 days by HPLC method; assay type: physicochemical; conditions: read-out: Stability
[5] = Clearance in rat at 0.5 mg/kg; assay type: ADME, organism-based; conditions: in vivo
[6] = Chemical stability of the compound in phosphate buffer at pH 6.5 at 37 degC after 90 days by HPLC method; assay type: physicochemical; conditions: read-out: Stability
[7] = Chemical stability of the compound in phosphate buffer at pH 7.4 at 37 degC after 90 days by HPLC method; assay type: physicochemical; conditions: read-out: Stability
[8] = Chemical stability of the compound in phosphate buffer at pH 7.4 at 25 degC after 90 days by HPLC method; assay type: physicochemical; conditions: read-out: Stability
[9] = Chemical stability of the compound in phosphate buffer at pH 6.5 at 25 degC after 90 days by HPLC method; assay type: physicochemical; conditions: read-out: Stability
[10] = Half life in cynomolgus monkey at 2.03 mg/kg; assay type: ADME, organism-based, Macaca fascicularis; conditions: in vivo
[11] = Chemical stability of the compound in phosphate buffer at pH 7.4 at 50 degC after 90 days by HPLC method; assay type: physicochemical; conditions: read-out: Stability
[12] = Clearance in dog at 4.75 mg/kg; assay type: ADME, organism-based, Canis lupus familiaris; conditions: in vivo
[13] = Half life in rabbit at 0.5 mg/kg; assay type: ADME, organism-based, Oryctolagus cuniculus; conditions: in vivo
[14] = physchem; conditions: phosphate buffer, pH 6.5
[15] = Mean residence time in rabbit at 0.5 mg/kg; assay type: ADME, organism-based, Oryctolagus cuniculus; conditions: in vivo
[16] = Total AUC in dog at 4.75 mg/kg; assay type: ADME, organism-based, Canis lupus familiaris; design: dose 4.75 mg/kg, time AUCmax; conditions: in vivo
[17] = Aqueous solubility of the compound at pH 6.7; assay type: physicochemical; conditions: aqueous medium
[18] = Clearance in cynomolgus monkey at 2.03 mg/kg; assay type: ADME, organism-based, Macaca fascicularis; conditions: in vivo
[19] = Total AUC in rat at 0.5 mg/kg; assay type: ADME, organism-based; design: dose 0.5 mg/kg, time AUCmax; conditions: in vivo
[20] = Half life in dog liver microsomes; assay type: ADME, Canis lupus familiaris, microsome
[21] = in vivo; conditions: rat, iv
[22] = Half life in rat at 0.5 mg/kg; assay type: ADME, organism-based; conditions: in vivo
[23] = Volume of distribution at steady state in cynomolgus monkey at 2.03 mg/kg; assay type: ADME, organism-based, Macaca fascicularis; conditions: in vivo, read-out: Vdss
[24] = Clearance in rabbit at 0.5 mg/kg; assay type: ADME, organism-based, Oryctolagus cuniculus; conditions: in vivo
[25] = Base dissociation constant, pKa of the compound; assay type: physicochemical
[26] = Solubility of the compound in Tris buffer at pH 8; assay type: physicochemical
[27] = Half life in dog at 4.75 mg/kg; assay type: ADME, organism-based, Canis lupus familiaris; conditions: in vivo
[28] = Acid dissociation constant, pKa of the compound; assay type: physicochemical
[29] = Total AUC in cynomolgus monkey at 2.03 mg/kg; assay type: ADME, organism-based, Macaca fascicularis; design: dose 2.03 mg/kg, time AUCmax; conditions: in vivo
[30] = in vivo; conditions: rat, iv; remark: listed apart in the source
[31] = Total AUC in rabbit at 0.5 mg/kg; assay type: ADME, organism-based, Oryctolagus cuniculus; design: dose 0.5 mg/kg, time AUCmax; conditions: in vivo
[32] = Volume of distribution at steady state in rabbit at 0.5 mg/kg; assay type: ADME, organism-based, Oryctolagus cuniculus; conditions: in vivo, read-out: Vdss
[33] = Mean residence time in rat at 0.5 mg/kg; assay type: ADME, organism-based; conditions: in vivo
[34] = Lipophilicity, log D of the compound by HPLC method; assay type: physicochemical
[35] = Mean residence time in cynomolgus monkey at 2.03 mg/kg; assay type: ADME, organism-based, Macaca fascicularis; conditions: in vivo
[36] = in vitro; conditions: rat, liver microsomes
[37] = in vivo; conditions: rat, iv; remark: listed apart in the source
[38] = Chemical stability of the compound in Tris buffer at pH 8 at 50 degC after 90 days by HPLC method; assay type: physicochemical; conditions: read-out: Stability
[39] = Solubility of the compound in phosphate buffer at pH 7.4; assay type: physicochemical
[40] = in vitro; conditions: human, liver microsomes
[41] = Chemical stability of the compound in phosphate buffer at pH 6.5 at 50 degC after 90 days by HPLC method; assay type: physicochemical; conditions: read-out: Stability
[42] = Chemical stability of the compound in Tris buffer at pH 8 at 25 degC after 90 days by HPLC method; assay type: physicochemical; conditions: read-out: Stability
[43] = Aqueous solubility of the compound at pH 8.5; assay type: physicochemical; conditions: aqueous medium
[44] = in vivo; conditions: rat, iv; remark: listed apart in the source

CN1CCN(c2cccc3c2CCN(C(=O)/C=C/c2c(-n4cnnn4)ccc(Cl)c2F)[C@@H]3C(=O)Nc2ccc(C(=O)O)cc2)C(=O)C1 [BMS-962212]
Vd [1]: 1.02 L/kg
solubility [2]: > 25000 µg/mL
Vd [3]: 0.32 L/kg
remaining at […] [4]: 99.7%
clearance [5]: 31 mL/min/kg
remaining at […] [6]: 99.8%
remaining at […] [7]: 99%
remaining at […] [8]: 100%
remaining at […] [9]: 99.9%
half-life [10]: 46.8 min
remaining at […] [11]: 94.6%
clearance [12]: 15 mL/min/kg
half-life [13]: 36 min
solubility at 24 h [14]: 880 µg/mL (≈ 1340 µM)
MRT [15]: < 60 min
AUC [16]: 7.76 µM·h
solubility [17]: 260 µg/mL (≈ 394 µM)
clearance [18]: 31 mL/min/kg
AUC [19]: 0.441 µM·h
half-life [20]: 120 min
clearance [21]: 16 mL/min/kg
half-life [22]: 13.2 min
Vd [23]: 1.16 L/kg
clearance [24]: 43 mL/min/kg
pKa [25]: 4.7
solubility [26]: 11000 µg/mL (≈ 16700 µM)
half-life [27]: 63 min
pKa [28]: 4.1
AUC [29]: 1.59 µM·h
Vd [30]: 0.75 L/kg
AUC [31]: 0.27 µM·h
Vd [32]: 0.71 L/kg
MRT [33]: < 60 min
logD [34]: 1.4
MRT [35]: < 60 min
half-life [36]: 59 min
half-life [37]: 52.8 min
remaining at […] [38]: 94%
solubility [39]: 1500 µg/mL (≈ 2280 µM)
half-life [40]: 108 to 120 min
remaining at […] [41]: 95.4%
remaining at […] [42]: 99%
solubility [43]: > 100000 µg/mL
AUC [44]: 0.309 µM·h
